Literature values in US9526803B2, “Diagnostic chewing gum for pathogens” (Julius-Maximilians-Universitaet Wuerzburg, priority 2012, dated 2016).
Structures can show the parent of a compound that is named as a salt.

How the values were obtained:
[1] = test system: human tongue; settings: average human
[2] = test system: gustatory system; settings: reference for calibration of volunteers; bitter value 10,000 = 1 g in 10,000 mL water barely recognized as bitter

Structure (SMILES)	concentration sensed down to (taste recognition threshold) [1]	bitter value [2]
C=C[C@H]1C[N@@]2CC[C@H]1C[C@H]2[C@H](O)c1ccnc2ccc(OC)cc12 [Quinine sulfate]	0.0004 mM	
C=C[C@H]1C[N@@]2CC[C@H]1C[C@H]2[C@H](O)c1ccnc2ccc(OC)cc12 [quinine-HCl]		200,000
O=C1NS(=O)(=O)c2ccccc21 [saccharin]	0.02 mM	
